From patent US12527773B2, “Flavi-block: a pan-flavivirus inhibitor” (Baden-Württemberg Stiftung GmbH, priority 2020, dated 2026)
“Also recorded” adds a separate entry of the source. Read-outs that look alike come from different tables or passages of the source.

Key:
DEN1/2 = assay: IC50 in established virological assays (Table 1), DEN1/2; format: cell-based; details: Dengue virus
Excerpt: In summary, a set of C10 derivatives (FIG. 12) was designed, synthesized and tested against HCV (which is considered as an established system to monitor drug effects against Flaviviridae) as well as DENV for comprehensive structure-activity relationship (SAR) analysis and target validation.

RSV = assay: Plaque assay, RSV infection (A549 cells lysed at 22 h); format: cell-based; details: human respiratory syncytial virus
Description: (§1) Vero and BHK-21 cells were maintained in DMEM media supplemented with 10% heat-inactivated FBS at 37° C. in a humidified incubator supplemented with 5% CO2; A549 cells were maintained in F-12K medium supplemented with 10% heat-inactivated Fetal Bovine Serum (FBS), 2 mM L-glutamine, 50 U/I penicillin, 0.05 mg/l streptomycin. DENV-1-4 strains, cell culture conditions and Gen-Bank accession numbers, as well as details of RSV strains and culture are known in the art. […] Viral titer was subsequently determined by plaque assay (see below).
Vero cells were seeded into 24-well plates at a density of 2×10^5 cells/well and grown overnight in culture medium at 37° C. with 5% CO2 prior to infection with RSV, KUNV, ZIKV as indicated. BHK-21 cells were used for DENV1-4. The virus inoculum was removed and replaced with semisolid overlays of 0.8% aquacide II (Calbiochem) in DMEM+2% FBS, and the mixture was incubated at 37° C. with 5% CO2. After 3-5 days, the cells were fixed with neutral buffered formalin (Sigma) for 3 h at room temperature, rinsed with tap water, and stained with 1% crystal violet for 10 min. The stain was removed by rinsing the cells with tap water, and the viral plaques were counted visually. Dose-response curves were plotted from the plaque number versus the log of the concentration of the test compounds. […]

DENV capsid protein = target: T1, DENV capsid protein (Dengue virus type 2, UniProt P29990); assay: Crosslinking of recombinant DENV capsid protein (Western blot); format: biochemical
T1 construct: recombinant DENV capsid protein; made in house; host or cells: E. coli
T1 sequence (P29990 1-100): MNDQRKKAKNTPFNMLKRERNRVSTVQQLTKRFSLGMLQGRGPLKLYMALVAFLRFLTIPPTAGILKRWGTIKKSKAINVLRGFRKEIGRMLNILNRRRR
Excerpt: DSS was included as a positive control.

[1] = Metabolic stability in mouse liver microsomes; details: for % Remain. Mean of 2: with NADPH; for % Remain. without cofactor, Mean of 2: without NADPH cofactor
Description: Microsomal incubations were carried out in 96-well plates in 5 aliquots of […] each (one for each time point). […] Control incubations were performed replacing the NADPH-cofactor system with PBS. […] Incubations were performed in duplicates. Five time points over 40 minutes had been analyzed. The reactions were stopped by adding 12 volumes of 90% acetonitrile-water to incubation aliquots, followed by protein sedimentation by centrifuging at 5500 rpm for 3 minutes. […]. Supernatants were analyzed using the HPLC system coupled with tandem mass spectrometer.
The elimination constant (kel), half-life (t½) and intrinsic clearance (Clint) were determined in plot of In(AUC) versus time, using linear regression analysis (In order to indicate the quality of the linear regression analysis, the R (correlation coefficient) values are provided. In some cases, the last time point is excluded from the calculations to ensure acceptable logarithmic linearity of decay): […]

KUNV = assay: RT-qPCR analysis of virus genomes, KUNV; format: cell-based, Kunjin virus; details: West Nile virus
Description: Vero cells were infected with KUNV at an MOI of 1 for 2 h (post infection), after which virus was removed, and fresh maintenance medium containing 2% FCS together with the indicated concentration of C10 added. For co-treat condition, Vero cells were infected with KUNV at an MOI of 1 in the presence of C10 for 2 h, followed by removal of the virus/C10 inoculums, and addition of fresh 2% fetal calf serum maintenance medium.
(§2) Viral RNA was extracted using Isolate II RNA extraction kit (Bioline), and the absolute number of RNA copies determined by Taqman One Step RT-qPCR (Applied Biosystems) by extrapolation from a standard curve generated from in vitro—transcribed virus RNA.
(§3) It was decided to test the ability of C10 to inhibit the flaviviruses DENV1-4, KUNV and ZIKV, in addition to the paramyxovirus RSV, as a control.

MeV = assay: IC50 in established virological assays (Table 1), MeV; format: cell-based, Measles morbillivirus
Description: In summary, a set of C10 derivatives (FIG. 12) was designed, synthesized and tested against HCV (which is considered as an established system to monitor drug effects against Flaviviridae) as well as DENV for comprehensive structure-activity relationship (SAR) analysis and target validation. IC50 and CC50 values for compound C10 were determined in established virological assays (Table 1). […] Further, said experiments underline the specificity of compound C10 for flaviviruses.

HCV core protein = HCV core protein (Hepatitis C virus genotype 1a, UniProt P27958); assay: Interaction with and crosslinking of HCV core protein (Western blot); details: purified core protein
HCV core protein, sequence (P27958 1-117): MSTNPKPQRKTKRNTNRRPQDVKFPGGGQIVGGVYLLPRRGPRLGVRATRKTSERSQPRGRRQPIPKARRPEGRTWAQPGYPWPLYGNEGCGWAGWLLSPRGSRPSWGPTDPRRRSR

HCV = assay: Antiviral effect on HCV (virus release), Jc1-Luc-IRES in Huh7.5 cells
[2] = system: ZIKV (Asian/Cook Islands/2014); assay: Plaque assay of released virus, ZIKV-infected Vero cells; format: cell-based; details: Zika virus
Description: (§4) Vero cells were infected with ZIKV at an MOI of 1 for 2 h (post infection), after which virus was removed, and fresh maintenance medium containing 2% FCS together with the indicated concentration of C10 added. For co-treat condition, Vero cells were infected with ZIKV at an MOI of 1 in the presence of C10 for 2 h, followed by removal of the virus/C10 inoculums, and addition of fresh 2% fetal calf serum maintenance medium. […] Results represent the mean ±SD for duplicate wells from a single assay (cf. Table 2 for pooled data).
as §1
Vero cells were seeded into 24-well plates at a density of 2×10^5 cells/well and grown overnight in culture medium at 37° C. with 5% CO2 prior to infection with RSV, KUNV, ZIKV as indicated. BHK-21 cells were used for DENV1-4. […] The stain was removed by rinsing the cells with tap water, and the viral plaques were counted visually. […]

DENV2 = assay: RT-qPCR analysis of virus genomes, DENV2; format: cell-based; details: Dengue virus
Description: as §4, with “DENV1-4” for “ZIKV”, “infection, p.i., (A)),” for “infection),”, “condition (c.t., (B)),” for “condition,”, “assay, representative of 2 independent experiments” for “assay”, “Tables 2A and 2B, infra,” for “Table 2”
as §2, §3

CCN1/C(=C\C=C\c2sc3cc(NC(C)=O)ccc3[n+]2CC)Sc2cc(NC(C)=O)ccc21.[I-] [C10, 6-acetamido-2-((1E,3E)-3-(6-acetamido-3-ethylbenzo[d]thiazol-2(3H)-ylidene)prop-1-en-1-yl)-3-ethylbenzo[d]thiazol-3-ium iodide]
IC50 (DEN1/2): 110 to 180 nM
EC50 (RSV; c.t., read-out: EC50 from plaque assays): 890 nM
EC50 (RSV; co-added with virus (text, Tables 2A and 2B), read-out: EC50): ~800 nM
effect on oligomerization state of DENV capsid protein (DENV capsid protein): enhance the presence of dimers, tetramers and higher oligomeric states
half-life at 2 mM ([1]; male, Balb/c, mouse, microsomes, pH 7.4): 5.79 h
CIint ([1]; mouse liver microsomes): 5 µL/min/mg
Kel ([1]; mouse liver microsomes): 0.002 min⁻¹
stability in mouse hepatic microsomal test system ([1]; mouse, microsomes): good stability
% Remain. Mean of 2 ([1]; 0.42 mg protein per ml, 0 min): 100%
% Remain. Mean of 2 ([1]; 10 min): 100%
% Remain. Mean of 2 ([1]; 20 min): 96%
% Remain. Mean of 2 ([1]; 30 min): 95%
% Remain. Mean of 2 ([1]; 40 min): 88%
% Remain. without cofactor, Mean of 2 ([1]; 0 min): 100%
% Remain. without cofactor, Mean of 2 ([1]; 40 min): 86%
EC50 (KUNV; read-out: EC50 from RT-qPCR analysis, KUNV, c.t.): 310 ± 180 nM
EC50 (KUNV; read-out: EC50 from RT-qPCR analysis, KUNV, p.i.): 1680 ± 640 nM
activity against Measles morbillivirus (MeV) (MeV): inactive or has only minor activity
IC50 (MeV; Measles morbillivirus, MeV): > 10000 nM
cross-linking / oligomerization of HCV core protein (HCV core protein): leads to cross-linking of the core protein; also recorded: triggers the oligomerization of HCV core protein
antiviral effect on release of infectious HCV (HCV; 24 h treatment): antiviral effects even at low concentrations
therapeutic index CC50/EC50 (HCV; HCV virus release, Huh7.5): approximately 590
EC50 ([2]; read-out: EC50 from plaque assays, ZIKV, c.t.): 90 nM
EC50 ([2]; read-out: EC50 from plaque assays, ZIKV, p.i.): 210 nM
EC50 (DENV2; DENV2, read-out: EC50 from RT-qPCR analysis, DENV2, c.t.): 200 nM
EC50 (DENV2; DENV2, read-out: EC50 from RT-qPCR analysis, DENV2, p.i.): 810 ± 480 nM
